Test results from ChEMBL document CHEMBL5233206, “An overview on the synthesis of carbohydrate-based molecules with biological activity related to neurodegenerative diseases” (RSC Med Chem, 2021).
pIC50, pKi: −log10 of the molar value.

Tests used:
Acetylcholinesterase [1] = target: T1, Acetylcholinesterase (Homo sapiens, UniProt P22303)
Description: Binding affinity to AChE (unknown origin) assessed as inhibition constant incubated for 30 mins by ellman's method

Cholinesterase [2] = target: T2, Cholinesterase (Homo sapiens, UniProt P06276)
Description: Binding affinity to BuChE (unknown origin) assessed as inhibition constant incubated for 30 mins by ellman's method

Acetylcholinesterase [3] = target: T3, Acetylcholinesterase (Mus musculus, UniProt P21836); assay: Inhibition of mouse brain AChE; assay type: tissue-based
T3 sequence (P21836 whole entry): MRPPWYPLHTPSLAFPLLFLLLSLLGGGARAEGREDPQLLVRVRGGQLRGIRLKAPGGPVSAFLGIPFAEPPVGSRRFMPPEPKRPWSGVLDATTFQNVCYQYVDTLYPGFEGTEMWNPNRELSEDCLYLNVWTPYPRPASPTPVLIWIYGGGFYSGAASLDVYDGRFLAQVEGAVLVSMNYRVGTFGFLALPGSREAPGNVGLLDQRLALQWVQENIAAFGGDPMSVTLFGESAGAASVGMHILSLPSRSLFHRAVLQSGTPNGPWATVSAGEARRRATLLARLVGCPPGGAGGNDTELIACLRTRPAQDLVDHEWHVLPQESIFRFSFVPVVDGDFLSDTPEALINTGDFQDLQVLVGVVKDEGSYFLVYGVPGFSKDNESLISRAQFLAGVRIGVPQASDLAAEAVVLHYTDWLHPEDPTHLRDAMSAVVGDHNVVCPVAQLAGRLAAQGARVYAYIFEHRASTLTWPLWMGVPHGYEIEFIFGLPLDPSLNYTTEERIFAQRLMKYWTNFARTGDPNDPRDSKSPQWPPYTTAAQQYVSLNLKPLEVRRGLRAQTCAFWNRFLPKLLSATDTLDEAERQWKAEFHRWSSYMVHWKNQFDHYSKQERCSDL

Cholinesterase [4] = target: Cholinesterase (Mus musculus, UniProt Q03311); assay: Inhibition of mouse serum BuChE; assay type: cell-free
Acetylcholinesterase [5] = target: T4, Acetylcholinesterase (Electrophorus electricus, UniProt O42275)
Description: Binding affinity to electrical eel AChE assessed as inhibition constant incubated for 20 mins by absorbance based analysis

Cholinesterase [6] = target: T2, Cholinesterase; remark: listed apart in the source
Description: Binding affinity to BuChE (unknown origin) assessed as inhibition constant

Cholinesterase [7] = target: T5, Cholinesterase (Equus caballus, UniProt P81908)
Description: Inhibition of equine serum BuChE by ellman's method

Acetylcholinesterase [8] = target: T4, Acetylcholinesterase; assay: Inhibition of electrical eel AChE by ellman's method
Acetylcholinesterase [9] = target: T1, Acetylcholinesterase; assay: Inhibition of AChE (unknown origin)
Cholinesterase [10] = target: T2, Cholinesterase; assay: Inhibition of BuChE (unknown origin) at 50 uM incubated for 20 mins by absorbance based analysis relative to control
Acetylcholinesterase [11] = target: T1, Acetylcholinesterase; assay: Inhibition of AChE (unknown origin) at 50 uM incubated for 20 mins by absorbance based analysis relative to control
[12] = Lipophilicity, logP of the compound; assay type: physicochemical; conditions: octanol/water
Cholinesterase [13] = target: T5, Cholinesterase; assay: Binding affinity to horse serum BuChE using ATCh-iodide as substrate by ellman's method

Sequence of Cholinesterase (Mus musculus, UniProt Q03311) (Q03311 whole entry): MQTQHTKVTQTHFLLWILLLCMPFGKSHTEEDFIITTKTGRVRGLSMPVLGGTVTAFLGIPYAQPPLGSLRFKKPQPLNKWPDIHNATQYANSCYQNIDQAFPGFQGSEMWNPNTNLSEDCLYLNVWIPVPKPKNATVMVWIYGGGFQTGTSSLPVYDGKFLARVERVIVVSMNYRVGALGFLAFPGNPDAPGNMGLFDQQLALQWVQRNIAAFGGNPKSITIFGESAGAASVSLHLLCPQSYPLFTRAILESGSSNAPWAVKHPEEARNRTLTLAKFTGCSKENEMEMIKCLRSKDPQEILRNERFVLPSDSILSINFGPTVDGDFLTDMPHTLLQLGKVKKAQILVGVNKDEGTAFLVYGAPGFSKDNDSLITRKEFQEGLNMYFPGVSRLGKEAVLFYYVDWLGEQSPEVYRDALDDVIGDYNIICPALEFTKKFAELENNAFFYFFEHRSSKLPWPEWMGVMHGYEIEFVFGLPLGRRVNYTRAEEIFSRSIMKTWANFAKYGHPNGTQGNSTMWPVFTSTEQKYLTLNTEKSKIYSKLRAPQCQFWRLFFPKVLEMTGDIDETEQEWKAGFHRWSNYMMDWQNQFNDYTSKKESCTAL
T2 sequence (P06276 whole entry): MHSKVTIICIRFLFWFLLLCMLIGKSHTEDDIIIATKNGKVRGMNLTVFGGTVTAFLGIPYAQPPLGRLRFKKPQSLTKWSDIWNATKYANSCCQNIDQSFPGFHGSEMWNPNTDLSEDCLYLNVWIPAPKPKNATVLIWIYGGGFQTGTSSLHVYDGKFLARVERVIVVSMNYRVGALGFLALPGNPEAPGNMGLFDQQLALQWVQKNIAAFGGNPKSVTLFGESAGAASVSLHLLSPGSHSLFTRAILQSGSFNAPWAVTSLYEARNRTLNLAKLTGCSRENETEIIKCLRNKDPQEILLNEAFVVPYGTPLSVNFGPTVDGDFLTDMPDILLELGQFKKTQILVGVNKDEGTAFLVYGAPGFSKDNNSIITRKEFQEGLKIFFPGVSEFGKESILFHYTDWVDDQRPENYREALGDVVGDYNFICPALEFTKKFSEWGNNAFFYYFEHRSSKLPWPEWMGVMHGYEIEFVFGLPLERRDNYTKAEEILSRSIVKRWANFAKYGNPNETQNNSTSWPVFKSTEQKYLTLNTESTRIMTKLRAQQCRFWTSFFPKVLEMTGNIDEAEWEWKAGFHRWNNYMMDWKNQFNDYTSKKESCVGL
T5 sequence (P81908 whole entry): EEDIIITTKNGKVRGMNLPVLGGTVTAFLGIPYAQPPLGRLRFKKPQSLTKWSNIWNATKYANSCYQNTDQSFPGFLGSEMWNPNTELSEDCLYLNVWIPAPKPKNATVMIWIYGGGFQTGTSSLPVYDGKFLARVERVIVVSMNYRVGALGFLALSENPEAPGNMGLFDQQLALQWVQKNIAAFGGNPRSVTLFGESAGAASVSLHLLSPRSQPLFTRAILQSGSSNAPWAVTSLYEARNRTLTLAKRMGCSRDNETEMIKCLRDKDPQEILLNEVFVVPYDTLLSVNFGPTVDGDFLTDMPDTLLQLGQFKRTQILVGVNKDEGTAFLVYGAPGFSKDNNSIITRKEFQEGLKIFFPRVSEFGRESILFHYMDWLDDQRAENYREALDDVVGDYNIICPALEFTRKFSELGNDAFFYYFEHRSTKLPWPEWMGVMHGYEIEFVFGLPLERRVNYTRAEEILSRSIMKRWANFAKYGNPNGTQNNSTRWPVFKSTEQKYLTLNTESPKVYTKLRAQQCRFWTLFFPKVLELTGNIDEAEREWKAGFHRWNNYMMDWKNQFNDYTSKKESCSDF
T1 sequence (P22303 whole entry): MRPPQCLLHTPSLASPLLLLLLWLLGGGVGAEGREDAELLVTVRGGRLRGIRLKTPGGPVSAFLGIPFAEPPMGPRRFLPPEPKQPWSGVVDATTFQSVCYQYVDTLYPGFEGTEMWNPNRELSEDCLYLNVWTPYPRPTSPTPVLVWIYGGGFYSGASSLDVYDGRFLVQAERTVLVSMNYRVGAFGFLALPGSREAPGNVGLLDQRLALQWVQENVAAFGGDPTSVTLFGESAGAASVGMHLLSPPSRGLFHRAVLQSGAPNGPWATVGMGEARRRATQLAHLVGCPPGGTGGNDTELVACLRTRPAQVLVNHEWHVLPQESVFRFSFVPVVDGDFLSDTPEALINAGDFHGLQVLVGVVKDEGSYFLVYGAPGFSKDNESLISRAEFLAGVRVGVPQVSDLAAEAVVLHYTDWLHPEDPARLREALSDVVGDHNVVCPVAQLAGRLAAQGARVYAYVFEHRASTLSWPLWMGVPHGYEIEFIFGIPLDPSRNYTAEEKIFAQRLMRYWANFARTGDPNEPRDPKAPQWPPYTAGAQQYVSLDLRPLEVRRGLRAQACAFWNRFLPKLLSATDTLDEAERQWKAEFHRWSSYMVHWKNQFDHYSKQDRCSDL
T4 sequence (O42275 whole entry): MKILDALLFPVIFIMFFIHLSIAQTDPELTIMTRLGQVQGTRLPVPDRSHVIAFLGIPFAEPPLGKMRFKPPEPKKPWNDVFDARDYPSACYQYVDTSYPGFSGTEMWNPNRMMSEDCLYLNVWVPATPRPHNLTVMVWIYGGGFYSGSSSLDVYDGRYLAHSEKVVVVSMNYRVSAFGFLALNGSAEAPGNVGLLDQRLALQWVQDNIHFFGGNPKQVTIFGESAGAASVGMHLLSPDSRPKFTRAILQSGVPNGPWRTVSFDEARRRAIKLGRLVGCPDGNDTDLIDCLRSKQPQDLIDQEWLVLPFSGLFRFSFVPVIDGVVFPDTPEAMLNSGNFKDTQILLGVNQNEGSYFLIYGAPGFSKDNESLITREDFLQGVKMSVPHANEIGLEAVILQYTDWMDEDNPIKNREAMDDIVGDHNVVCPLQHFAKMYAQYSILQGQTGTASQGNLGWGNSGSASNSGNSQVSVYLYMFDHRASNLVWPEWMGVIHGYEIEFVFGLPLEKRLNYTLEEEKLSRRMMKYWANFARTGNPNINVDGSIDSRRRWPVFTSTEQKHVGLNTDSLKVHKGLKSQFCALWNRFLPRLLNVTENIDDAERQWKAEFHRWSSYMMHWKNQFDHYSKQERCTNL

## CC(=O)Nc1nc(Cl)c2c(ncn2C2O[C@H](C(=O)NCc3ccccc3)[C@@H](OC(C)=O)[C@@H](OC(C)=O)[C@H]2OC(C)=O)n1 (stereo partly specified)
Acetylcholinesterase [1]
  pKi: 4.73
Cholinesterase [2]
  pKi: < 4.00

## CC1(C)O[C@H]2O[C@H](CNCCCCCCCCCCCNc3c4c(nc5ccccc35)CCCC4)[C@H](O)[C@H]2O1
Acetylcholinesterase [3]
  pIC50: 8.66
Cholinesterase [4]
  pIC50: 8.31

## CO[C@H]1O[C@H](Cn2cnc3c(Cl)nc(NC(C)=O)nc32)[C@@H](OCc2ccccc2)[C@H](OCc2ccccc2)[C@H]1OCc1ccccc1
Acetylcholinesterase [5]
  pKi: 5.15
Cholinesterase [6]
  pKi: > 4.00

## CC(=O)Nc1nc(Cl)c2ncn(C3O[C@H]4[C@H](OC(=O)[C@@H]4O)[C@H]3OC(C)=O)c2n1 (stereo partly specified)
Acetylcholinesterase [1]
  pKi: 4.63
Cholinesterase [2]
  pKi: < 4.00

## CCCCCCCCCCCCNC(=O)[C@@H](OCc1ccccc1)[C@H]1O[C@H](N=[N+]=[N-])[C@H](OC(C)=O)[C@H]1OCc1ccccc1
Acetylcholinesterase [5]
  pKi: < 4.00

## CCCCCCCCCCCCNC(=O)[C@@H](OCc1ccccc1)[C@H]1O[C@@H](N=[N+]=[N-])[C@H](OC(C)=O)[C@H]1OCc1ccccc1
Acetylcholinesterase [5]
  pKi: 5.76

## CC1(C)O[C@H]2[C@@H](O1)[C@@H](CNCCCCCCCCCNc1c3c(nc4ccccc14)CCCC3)O[C@@H]1OC(C)(C)O[C@@H]12
Acetylcholinesterase [3]
  pIC50: 8.32
Cholinesterase [4]
  pIC50: 7.43

## CC(=O)Nc1nc(NCc2ccccc2)c2ncn(C3O[C@H](CC(=O)NCc4ccccc4)[C@H](OC(C)=O)[C@H]3OC(C)=O)c2n1 (stereo partly specified)
Acetylcholinesterase [1]
  pKi: 4.30
Cholinesterase [2]
  pKi: < 4.00

## CC1(C)O[C@H]2O[C@H](CNCCCCCCCCCNc3c4c(nc5ccccc35)CCCC4)[C@H](O)[C@H]2O1
Acetylcholinesterase [3]
  pIC50: 8.29
Cholinesterase [4]
  pIC50: 7.60

## COc1ccc2c(c1)c(=O)c1ccccc1n2CCCCCCn1cc(CO[C@@H]2O[C@H](CO)[C@@H](O)[C@H]2O)nn1
Cholinesterase [7]
  pIC50: 4.46
Acetylcholinesterase [8]
  pIC50: 4.09

## CC(=O)Nc1nc(Cl)c2ncn(C3O[C@H](CC(=O)NCc4ccccc4)[C@H](OC(C)=O)[C@H]3OC(C)=O)c2n1 (stereo partly specified)
Acetylcholinesterase [1]
  pKi: 4.83
Cholinesterase [2]
  pKi: < 4.00

## Cn1cnc2c1c(=O)n(C[C@H]1O[C@@H]3OC(C)(C)O[C@@H]3[C@H]1OCc1ccccc1)c(=O)n2C
Acetylcholinesterase [5]
  pKi: < 4.00

## O=c1c2ccccc2n(CCCCCCn2cc(CO[C@@H]3O[C@H](CO)[C@H](O)[C@H](O)[C@H]3O)nn2)c2ccccc12
Cholinesterase [7]
  pIC50: 4.42
Acetylcholinesterase [8]
  pIC50: 4.35

## CO[C@@H]1O[C@H](CNCCCCCCCCCCNc2c3c(nc4ccccc24)CCCC3)[C@H]2OC(C)(C)O[C@@H]12
Acetylcholinesterase [3]
  pIC50: 7.19
Cholinesterase [4]
  pIC50: 7.19

## COC1O[C@H](Cn2ccc(=O)n(C[C@H]3O[C@H](OC)[C@H](OCc4ccccc4)[C@@H](OCc4ccccc4)[C@@H]3OCc3ccccc3)c2=O)[C@@H](OCc2ccccc2)[C@H](OCc2ccccc2)[C@H]1OCc1ccccc1 (stereo partly specified)
Acetylcholinesterase [5]
  pKi: 5.38
Cholinesterase [6]
  pKi: 5.40

## CC(=O)Nc1nc(Cl)c2ncn(C3O[C@H](C(=O)O)[C@@H](OC(C)=O)[C@@H](OC(C)=O)[C@H]3OC(C)=O)c2n1 (stereo partly specified)
Acetylcholinesterase [1]
  pKi: 4.57
Cholinesterase [2]
  pKi: < 4.00

## COc1cc(CO)ccc1O[C@@H]1O[C@H](CO)[C@@H](O)[C@H](O)[C@H]1O [VANILLOLOSIDE]
Acetylcholinesterase [9]
  pIC50: 5.34

## CC(=O)Nc1nc(Cl)c2c(ncn2C2O[C@H](C(=O)O)[C@@H](OC(C)=O)[C@@H](OC(C)=O)[C@H]2OC(C)=O)n1 (stereo partly specified)
Acetylcholinesterase [1]
  pKi: 4.42
Cholinesterase [2]
  pKi: < 4.00

## COc1ccc2c(c1)c(=O)c1ccccc1n2CCCCCCn1cc(CO[C@@H]2O[C@H](CO)[C@H](O)[C@H](O)[C@H]2O)nn1
Cholinesterase [7]
  pIC50: 4.18
Acetylcholinesterase [8]
  pIC50: 4.35

## CC1(C)O[C@H]2O[C@H](CNCCCCCCCCCCNc3c4c(nc5ccccc35)CCCC4)[C@H](O)[C@H]2O1
Acetylcholinesterase [3]
  pIC50: 8.00
Cholinesterase [4]
  pIC50: 7.51

## CC(=O)Nc1nc(Cl)c2c(ncn2[C@H]2O[C@H](COCc3ccccc3)[C@@H](OCc3ccccc3)[C@H](OCc3ccccc3)[C@@H]2OCc2ccccc2)n1
Cholinesterase [2]
  pKi: 7.30

## CCCCCCCCO[C@H]1[C@H](OC(C)=O)[C@@H](Cn2c(=O)c3c(ncn3C)n(C)c2=O)OC(NS(C)(=O)=O)[C@@H]1OC(C)=O (stereo partly specified)
Cholinesterase [10]
  inhibition: 52.6%
Acetylcholinesterase [11]
  inhibition: 28.3%

## O=c1c2ccccc2n(CCCCCCn2cc(CO[C@@H]3O[C@H](CO)[C@@H](O)[C@H](O)[C@H]3O)nn2)c2ccccc12
[12]
  logP: 2.14
Cholinesterase [7]
  pIC50: 4.53
Acetylcholinesterase [8]
  pIC50: 4.42

## COc1ccc2c(c1)c(=O)c1ccccc1n2CCCCCCn1cc(CO[C@@H]2O[C@H](CO)[C@@H](O)[C@H](O)[C@H]2O)nn1
[12]
  logP: 2.14
Cholinesterase [7]
  pIC50: 4.08
Acetylcholinesterase [8]
  pIC50: 4.25

## OC[C@H]1O[C@@H](OCCN2CN(Cc3ccccc3)c3ccccc32)[C@H](O)[C@@H](O)[C@H]1O
Cholinesterase [13]
  pKi: 4.59
